# According to ChEMBL document CHEMBL1141675, “QSAR modeling of the interaction of flavonoids with GABA(A) receptor” (Eur J Med Chem, 2008):
# Test: Binding affinity to GABAA receptor
# Design: unit not given here
row,logKi,SMILES
1,0.322,COc1ccc(-c2cc(=O)c3cc(Br)ccc3o2)cc1
2,1.97,O=c1c(O)c(-c2ccc(O)cc2)oc2cc(O)cc(O)c12
3,-1.57,O=c1cc(-c2ccccc2O)oc2ccc3ccccc3c12
4,-0.072,COc1cccc(-c2cc(=O)c3cc(Cl)ccc3o2)c1
5,-0.682,Cc1cccc(-c2cc(=O)c3cc(C)ccc3o2)c1
6,0,O=c1cc(-c2ccccc2)oc2ccccc12
7,0,O=c1cc(-c2cccc(Br)c2)oc2ccc(O)cc12
8,-0.678,O=c1cc(-c2ccccc2O)oc2ccccc12
9,0.556,O=c1cc(-c2ccc(F)cc2)oc2ccccc12
10,0.477,O=c1cc(-c2ccccc2)oc2cc(O)cc(O)c12
11,-0.38,O=c1cc(-c2ccccc2F)oc2ccc(Cl)cc12
12,-0.384,O=c1cc(-c2cccc(Br)c2)oc2ccccc12
13,-0.424,O=c1cc(-c2ccccc2F)oc2ccc(Br)cc12
14,-0.701,O=c1cc(-c2cccc(Cl)c2)oc2ccc(F)cc12
15,1,Cc1cccc(-c2cc(=O)c3ccccc3o2)c1
16,-1.77,O=c1cc(-c2cccc(Cl)c2)oc2ccc(Br)cc12
17,-1.64,O=c1cc(-c2cccc(Cl)c2)oc2ccc(Cl)cc12
18,-3,O=c1cc(-c2cccc([N+](=O)[O-])c2)oc2ccc(Br)cc12
19,0.182,COc1c(O)cc(O)c2c(=O)cc(-c3ccccc3)oc12
20,-0.215,COc1cccc(-c2cc(=O)c3cc(Br)ccc3o2)c1
21,-0.68,O=c1cc(-c2ccccc2[N+](=O)[O-])oc2ccc(Br)cc12
22,-1.42,COc1c(O)cc2oc(-c3ccccc3O)cc(=O)c2c1O
23,0.747,O=c1cc(-c2ccccc2)oc2cc(O)c(O)c(O)c12
24,0.623,O=c1cc(-c2ccccc2)oc2cc(O)ccc12
25,-1.16,O=c1cc(-c2ccccc2)oc2ccc(Br)cc12
26,-1.89,Cc1ccc2oc(-c3cccc(Br)c3)cc(=O)c2c1

row,logKi,SMILES
1,-0.785,O=c1cc(-c2ccccc2)oc2ccc(Cl)cc12
2,1.51,COc1ccccc1-c1cc(=O)c2ccccc2o1
3,1.7,COc1cc(O)c2c(=O)cc(-c3ccccc3)oc2c1
4,-0.252,O=c1cc(-c2ccccc2O)oc2cc(O)ccc12
5,-0.627,O=c1cc(-c2cccc(Br)c2)oc2ccc(F)cc12
6,-0.444,COc1cccc(O)c1-c1cc(=O)c2c(O)c(OC)c(OC)c(OC)c2o1
7,-1.6,O=c1cc(-c2ccc(Br)cc2)oc2ccc([N+](=O)[O-])cc12
8,-2.25,Cc1ccc2oc(-c3cccc([N+](=O)[O-])c3)cc(=O)c2c1
9,0.544,COc1ccc2oc(-c3ccccc3N)cc(=O)c2c1
10,-0.07,O=c1cc(-c2cccc(O)c2)oc2ccc(Cl)cc12
11,-2.21,COc1c(O)c(OC)c2oc(-c3ccccc3O)cc(=O)c2c1O
12,0.602,O=c1cc(-c2ccc(O)cc2)oc2cc(O)cc(O)c12
13,-0.745,O=c1cc(-c2cccc([N+](=O)[O-])c2)oc2ccc(F)cc12
14,0.903,O=c1cc(-c2ccccc2F)oc2cc(O)cc(O)c12
15,-0.036,O=c1cc(-c2cccc(F)c2)oc2ccc(F)cc12
16,-1.6,O=c1cc(-c2cccc(Br)c2)oc2ccc([N+](=O)[O-])cc12
17,-0.545,O=c1cc(-c2cccc([N+](=O)[O-])c2)oc2ccccc12
18,-0.742,O=c1cc(-c2ccc(F)cc2)oc2ccc(Cl)cc12
19,0.55,O=c1cc(-c2cccc(F)c2)oc2ccccc12
20,0.4,O=c1cc(-c2cccc(O)c2)oc2ccc(F)cc12
21,0,COc1c(O)cc2oc(-c3ccc(O)cc3)cc(=O)c2c1O
22,-1.38,O=c1cc(-c2cccc(F)c2)oc2ccc(Br)cc12
23,1.36,COc1cc2oc(-c3ccc(O)cc3)cc(=O)c2c(O)c1OC
24,-0.22,O=c1cc(-c2cccc(O)c2)oc2ccc(Br)cc12
25,-0.939,O=c1cc(-c2ccc(F)cc2)oc2ccc(Br)cc12
26,-1.47,O=c1cc(-c2ccccc2O)oc2ccc(O)cc12

row,logKi,SMILES
1,-0.212,O=c1cc(-c2cccc(Cl)c2)oc2ccccc12
2,-2.1,O=c1cc(-c2cccc([N+](=O)[O-])c2)oc2ccc(Cl)cc12
3,2.3,COc1cc2oc(-c3ccc(O)c(O)c3)cc(=O)c2c(O)c1OC
4,-0.699,COc1c(O)c(OC)c2oc(-c3ccccc3)cc(=O)c2c1O
5,-0.051,COc1c(O)cc2oc(-c3ccccc3)cc(=O)c2c1O
6,-0.155,O=c1cc(-c2ccccc2)oc2c(Br)c(O)c(Br)c(O)c12
7,-0.561,O=c1cc(-c2ccccc2)oc2ccc([N+](=O)[O-])cc12
8,-0.066,COc1ccc2oc(-c3ccccc3)cc(=O)c2c1
9,0.653,O=c1cc(-c2ccccc2)oc2ccc(F)cc12
10,0,COc1ccc2oc(-c3cccc(Br)c3)cc(=O)c2c1
11,-1.12,O=c1cc(-c2ccccc2O)oc2cc(O)cc(O)c12
12,-1.64,O=c1cc(-c2cccc(Br)c2)oc2ccc(Cl)cc12
13,0,O=c1cc(-c2ccccc2)oc2c(I)c(O)c(I)c(O)c12
14,0.976,COc1ccccc1-c1cc(=O)c2cc(O)ccc2o1
15,0.422,O=c1cc(-c2ccccc2)oc2ccc(O)cc12
16,0.097,COc1ccc(-c2cc(=O)c3cc(Cl)ccc3o2)cc1
17,-0.812,Cc1cccc(-c2cc(=O)c3cc(Br)ccc3o2)c1
18,0.38,COc1cccc(-c2cc(=O)c3ccccc3o2)c1
19,-0.932,O=c1cc(-c2cccc(F)c2)oc2ccc(Cl)cc12
20,0.398,COc1cccc(-c2cc(=O)c3cc(F)ccc3o2)c1
21,0.903,O=c1cc(-c2ccccc2Cl)oc2cc(O)cc(O)c12
22,0.398,O=c1cc(-c2ccc(F)cc2)oc2ccc(F)cc12
23,-1.72,O=c1cc(-c2cccc(Br)c2)oc2ccc(Br)cc12
24,-0.699,O=c1cc(-c2ccc([N+](=O)[O-])cc2)oc2ccc(Br)cc12

row,SMILES,logKi
1,Cc1ccc2oc(-c3ccccc3)cc(=O)c2c1,-0.903
2,O=c1cc(-c2cccc([N+](=O)[O-])c2)oc2ccc([N+](=O)[O-])cc12,-1.58
